{
  "source": "patent US8937183B2",
  "about": "“Detection of hydrogen peroxide” (Promega Corporation, priority 2011, dated 2015)",
  "test": "Detection of hydrogen peroxide using coelenterazine borate with NanoLuc luciferase",
  "format": "biochemical",
  "settings": "12.5 uM compound, 40 ng/ml NanoLuc luciferase, 200 mM Tris-Cl pH 8.5 or pH 9.0, FIG. 3",
  "method": "PBI 4759 (10 mM; final concentration 12.5 uM), various concentrations of hydrogen peroxide and 40 ng/ml NanoLuc™ luciferase enzyme (Promega Corporation) were added to wells of a 96-well assay plate containing 200 mM Tris-Cl either at pH 8.5 or pH 9.0. Luminescence was detected on a GloMax® luminometer.",
  "data": [
    {"smiles": "CC1(C)OB(c2ccc(COc3c(Cc4ccco4)nc4c(Cc5ccccc5)nc(-c5ccccc5)cn34)cc2)OC1(C)C", "note": "[PBI 4759, 8-benzyl-2-(furan-2-ylmethyl)-6-phenyl-3-((4-(4,4,5,5-tetramethyl-1,3,2-dioxaborolan-2-yl)benzyl)oxy)imidazo[1,2-a]pyrazine]", "values": [
      {"measurement": "detection of hydrogen peroxide by luminescence (in words)", "value": "allows sensitive detection of hydrogen peroxide"}
    ]}
  ]
}
